Earlier results in US20230201147A1, “COCRYSTAL ANTIOXIDANTS OF PROTOCATECHUIC ACID WITH L-THEANINE FOR THE TREATMENT OF OXIDATIVE STRESS AND INFLAMMATORY CONDITIONS” (priority 2020, published 2023).

System: thrombin-stimulated thromboxane formation
Conditions: whole blood

CCNC(=O)CC[C@H](N)C(=O)O [L-theanine, N-ethyl-L-glutamine]
inhibition of thrombin-stimulated thromboxane formation: potent inhibitor
